Source: publication PMC10497752, “Heparins are potent inhibitors of ectonucleotide pyrophosphatase/phospho-diesterase-1 (NPP1) – a promising target for the immunotherapy of cancer” (Frontiers in Immunology, 2023)

Columns and labels:
[1] = target: T1, human NPP3 (Homo sapiens, UniProt O14638); assay: NPP3 colorimetric assay, p-Nph-5'-TMP as substrate; format: biochemical; conditions: 20 µg/mL (12 µM)
T1 construct: Soluble and purified human NPP3, prepared as previously described; made in house
T1 sequence (O14638 31-875 limits assumed): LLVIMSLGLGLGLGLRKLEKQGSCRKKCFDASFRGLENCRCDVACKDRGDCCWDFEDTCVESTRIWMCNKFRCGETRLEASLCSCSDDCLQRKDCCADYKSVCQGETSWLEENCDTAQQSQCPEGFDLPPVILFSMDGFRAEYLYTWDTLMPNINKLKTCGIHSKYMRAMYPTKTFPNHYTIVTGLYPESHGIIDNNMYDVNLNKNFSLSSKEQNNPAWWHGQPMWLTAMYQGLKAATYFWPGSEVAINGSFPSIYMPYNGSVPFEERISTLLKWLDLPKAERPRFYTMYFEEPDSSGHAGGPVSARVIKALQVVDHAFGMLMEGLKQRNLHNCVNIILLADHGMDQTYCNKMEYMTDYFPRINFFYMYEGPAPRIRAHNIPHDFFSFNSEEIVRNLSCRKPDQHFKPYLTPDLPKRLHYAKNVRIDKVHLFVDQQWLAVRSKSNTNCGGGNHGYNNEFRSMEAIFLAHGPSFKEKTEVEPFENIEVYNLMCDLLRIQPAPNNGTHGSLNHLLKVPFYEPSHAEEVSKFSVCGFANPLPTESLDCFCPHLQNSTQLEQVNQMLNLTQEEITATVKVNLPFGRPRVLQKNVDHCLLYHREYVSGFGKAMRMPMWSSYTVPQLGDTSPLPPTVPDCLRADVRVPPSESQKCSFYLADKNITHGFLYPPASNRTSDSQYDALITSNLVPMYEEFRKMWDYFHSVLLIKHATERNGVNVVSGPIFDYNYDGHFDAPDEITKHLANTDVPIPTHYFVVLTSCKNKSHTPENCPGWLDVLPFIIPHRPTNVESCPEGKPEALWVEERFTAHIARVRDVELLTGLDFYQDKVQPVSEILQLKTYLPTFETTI
Description: Compounds 1, 2, 5, 6, and 7 were screened at different concentrations using 400 μM of p-nitrophenyl thymidine monophosphate (p-Nph-5´-TMP) as substrate to study potential inhibition of NPP3 and NPP5 using a colorimetric assay as previously described ([21]). Soluble and purified human NPP3, prepared as previously described ([22]), and human NPP5 ([23]) were diluted in the assay buffer (50 mM TRIS HCl, 2 mM CaCl2, and 0.2 mM ZnCl2, pH 9.00), and 0.09 µg of NPP3, or 0.4 µg of NPP5 were employed. The mixtures were incubated for 30 min at 37°C in case of NPP3, and for 100 min at 37°C in case of NPP5, and the reactions were subsequently terminated by adding 20 μL of 1.0 N aq. NaOH solution. The assay is based on the enzymatic ester hydrolysis of p-Nph-5’-TMP which results in the formation of the yellow p-nitrophenolate anion. The absorption was measured at 400 nm using a BMG PheraStar FS plate reader (BMG Labtech GmbH, Ortenberg, Germany). Each analysis was repeated three times with triplicate measurements.

[2] = target: T2, human NTPDase3 (Homo sapiens, UniProt O75355); assay: NTPDase CE-based assay, NTPDase3; format: biochemical; conditions: 20 µg/mL (12 µM)
T2 construct: made in house; host or cells: COS-7 cells
T2 sequence (O75355 1-529): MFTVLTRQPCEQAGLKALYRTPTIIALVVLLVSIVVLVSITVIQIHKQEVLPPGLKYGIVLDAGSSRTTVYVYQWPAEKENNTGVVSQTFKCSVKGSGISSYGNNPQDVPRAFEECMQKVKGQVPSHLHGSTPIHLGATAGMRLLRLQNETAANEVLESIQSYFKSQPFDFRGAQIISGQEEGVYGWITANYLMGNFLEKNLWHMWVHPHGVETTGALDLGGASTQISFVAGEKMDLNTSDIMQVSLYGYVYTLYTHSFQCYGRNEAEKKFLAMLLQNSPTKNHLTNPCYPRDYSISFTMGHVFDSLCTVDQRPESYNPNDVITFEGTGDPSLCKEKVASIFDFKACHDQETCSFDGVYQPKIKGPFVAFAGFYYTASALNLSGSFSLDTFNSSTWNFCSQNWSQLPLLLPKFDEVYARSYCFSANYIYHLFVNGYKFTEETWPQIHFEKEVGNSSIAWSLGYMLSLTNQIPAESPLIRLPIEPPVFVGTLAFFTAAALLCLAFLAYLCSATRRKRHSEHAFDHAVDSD
Description: For monitoring the activity of human NTPDases (subtypes 1, 2, 3 and 8) in the presence of test compounds, a CE-based assay system was used, according to a published procedure ([11], [25]). The following concentrations of test compounds were investigated in initial screening studies: 63 IU/mL of compounds 1 and 2, 30 µM of compound 6. For selectivity studies, the following concentration were employed: 50 IU/mL of 1, 12 µM of 6, and 48 µM of 7. The amount of enzyme was selected according to previously performed enzymatic titration, and adjusted to ensure a 10–20% conversion rate. Enzymes were obtained by transfection of COS-7 cells using plasmids encoding human NTPDase1 (GenBank accession number U87967) ([26]), NTPDase2 (NM_203468) ([27]), a kind gift of Dr. A.F. Knowles (San Diego, CA), NTPDase3 (AF034840) ([28]), a kind gift of Dr. T.L. Kirley (Cincinnati, OH) and human NTPDase8 (AY430414) ([29]) and purified as previously described ([30], [31]). The reaction buffer consisted of 10 mM HEPES, 2 mM CaCl2, and 1 mM MgCl2, pH 7.4. In the CE assay, the selected substrate concentration (ATP) was 100 µM for all studied human NTPDases (-1, -2, -3 and -8). […] The released products were separated by CE and quantified by their UV-absorption at 260 nm with ADP and AMP as external standards, as previously described ([11]); positive and negative controls were included.

In the case of `CO[C@H]1O[C@H](COS(=O)(=O)O)[C@@H](O[C@@H]2O[C@@H](C(=O)O)[C@@H](O[C@H]3O[C@H](COS(=O)(=O)O)[C@@H](O[C@@H]4O[C@H](C(=O)O)[C@@H](O[C@H]5O[C@H](COS(=O)(=O)O)[C@@H](O)[C@H](O)[C@H]5NS(=O)(=O)O)[C@H](O)[C@H]4O)[C@H](OS(=O)(=O)O)[C@H]3NS(=O)(=O)O)[C@H](O)[C@H]2OS(=O)(=O)O)[C@H](O)[C@H]1NS(=O)(=O)O` [Compound 6, Fondaparinux], the “NPP3 inhibition, selectivity study” value [1] is reported as “no effect” and the “NTPDase3 inhibition, selectivity study” value [2] is reported as “no effect”.
